Results from US6797721B2, “Phorboxazole derivatives for treating cancer” (Parker Hughes Institute, priority 1999, dated 2004).

Tests used:
[1] = test system: BT-20 human breast cancer cells; experiment: MTT cytotoxicity assay, BT-20; type: cell-based; details: BT-20 (breast cancer), 24-36 hours, read-out: IC50 [MTT]
Experimental: (§1) The cytotoxicity assay of synthetic Phorboxazole A and various derivative compounds against human tumor cells was performed using the MTT (3-[4,5-dimethylthiazol-2-yl]-2,5-diphenyl tetrazolium bromide) assay (Boehringer Mannheim Corp., Indianapolis, Ind.). Briefly, exponentially growing brain tumor cells were seeded into a 96-well plate at a density of 2.5×10^4 cells/well and incubated for 36 hours at 37° C. prior to drug exposure. On the day of treatment, culture medium was carefully aspirated from the wells and replaced with fresh medium containing the various phorboxazole A derivative compounds as well as the tyrosine kinase inhibitory isoflavone genistein (GEN) at concentrations ranging from 0.1 to 250 μM. Triplicate wells were used for each treatment.
(§2) Human glioblastoma cells U373 (brain cancer), human B-lineage acute lymphoblastic leukemia cells NALM-6, and human breast cancer cells BT-20 were obtained from American Type Culture Collection (Rockville, Md.) and maintained as a continuous cell line in Dulbecco's modified Eagles's medium supplemented with 10% fetal bovine serum and antibiotics.
(§3) The cells were incubated with the various compounds for 24-36 hours at 37° C. in a humidified 5% CO2 atmosphere. To each well, 10 μl of MTT (0.5 mg/ml final concentration) was added and the plates were incubated at 37° C. for 4 hours to allow MTT to form formazan crystals by reacting with metabolically active cells. The fonnazan crystals were solubilized overnight at 37° C. in a solution containing 10% SDS in 0.01 M HCl. The absorbance of each well was measured in a microplate reader (Labsystems) at 540 nm and a reference wavelength of 690 nm. To translate the OD540 values into the number of live cells in each well, the OD540 values were compared to those on standard OD540-versus-cell number curves generated for each cell line. The percent survival was calculated using the formula: [formula]
(§4) The IC50 values were calculated by non-linear regression analysis.

[2] = test system: U373 human glioblastoma cells; experiment: Clonogenic assay, U373; type: cell-based; details: 7 days; for inhibition at 0.01 µM / inhibition at 0.1 µM: Homo sapiens, U373 MG, 168 h, read-out: Inhibition of clonogenic growth
Experimental: (§5) The growth-inhibiting activity of the synthetic Phorboxazole A and the synthesized derivatives was tested in clonogenic assays. Cancer cells were treated with 1 nM, 10 nM, and 100 nM doses of synthetic Phorboxazole A or derivatives of phorboxazole A. Treated cells included U373 human glioblastoma cells, NALM-6, human B-lineage acute lymphoblastic leukemia cells, and BT-20 human breast cancer cells. The cancer cells were resuspended in clonogenic medium consisting of alpha-MEM supplemented with 0.9% methylcellulose, 30% fetal bovine serum, and 50 μM 2-mercaptoethanol. Cells were plated in duplicate Petri dishes at 100,000 cells/mL/dish and cultured in a humidified 5% CO2 incubator for 7 days. Cancer cell colonies were enumerated on a grid using an inverted phase microscope of high optical resolution. Results were expressed as % inhibition of clonogenic cells at a particular concentration of the test agent using the formula:
(§6) % Inhibition=(1−Mean # of colonies [Test]/Mean # of colonies [Control]×100.

[3] = test system: NALM-6 B-lineage ALL cells; experiment: Clonogenic assay, NALM-6; type: cell-based, human; details: 7 days; for inhibition at 0.001 µM / inhibition at 0.01 µM / inhibition at 0.1 µM: Homo sapiens, 168 h, read-out: Inhibition of clonogenic growth
Experimental: as §5, §6

[4] = test system: human breast cancer cell line BT-20; experiment: In situ detection of apoptosis (nick-end-labeling, confocal microscopy); type: cell-based; details: final concentration of 100 μM, 24 hours
Experimental: The synthetic Phorboxazole A and the synthetic analogs were also assayed for apoptosis-inducing activity. Assay for apoptosis was performed by the in situ nick-end-labeling method using an ApopTag in situ detection kit (Oncor, Gaithersburg, Md.) according to the manufacturer's reconmmendations. Immunofluorescence was used to examine the morphologic features of human breast cancer cell line BT-20 (American Type Culture Collection Rockville, Md.) treated with the novel phorboxazole A derivatives of the present invention.
Cells were trypsinized from rapidly growing tissue culture flasks and seeded onto sterile 22 mm^2 coverslips in 6-well culture plates. Cells on coverslips were returned to the incubator for 24 hours prior to treatment. The phorboxazole A derivatives were added to the cells from a stock solution made in DMSO to a final concentration of 100 μM. Final DMSO concentration were kept at 0.1% in both test samples and controls. Cells were returned to a 37° C. incubation for 24 hours before further processing. At 24 hours, coverslips were fixed in −20° C. methanol for 15 minutes followed by a 15 minute incubation in phosphate buffered saline +0.1% Triton X-100 (PBS-Tx). Coverslips were then incubated with a monoclonal antibody against α-tubulin (Sigma Chemical Co., St. Louis, Mo.) at a dilution of 1:1000 for 40 minutes in a humidified chamber at 37° C. Coverslips were washed for 15 minutes in PBS-Tx followed by a 40 minute incubation with goat anti-mouse IgG antibody conjugated to FITC (Amersham Corp., Arlington Heights, Ill.). The coverslips were again rinsed in PBS-Tx and incubated with 5 μM TOTO-3 (Molecular Probes, Eugene, Oreg.) for 20 minutes to label the nuclear DNA. Coverslips were immediately inverted onto slides in Vectashield (Vector Labs, Burlingame) to prevent photobleaching, sealed with nail varnish and stored at 4° C.
Slides were examined using a Bio-Rad MRC-1024 Laser Scanning Confocal Microscope mounted on a Nikon Eclipse E800 upright microscope with high numerical aperture objectives. […]

leukemia NALM-6 cells = experiment: Mitochondrial transmembrane potential assay (DiIC1(5) staining); type: cell-based, human; details: 2.5 nM, 5 nM or 10 nM, 72 hours
Experimental: FIG. 2 are graphs showing the effect of synthetic phorboxazole A and phorboxazole A derivatives on the mitochondrial transmembrane potentials of leukemia NALM-6 cells.
Cells were incubated with 2.5 nM, 5 nM or 10 nM of phorboxazole A, 33-O-methyl-phorboxazole A or 45,46-dehydrobromo-phorboxazole A for 72 hours, stained with DiICl (5) to assess the mitochondrial membrane potential (Δψm) and then analyzed with a cell sorter equipped with a HeNe laser.

[5] = test system: NALM-6 human B-lineage acute lymphoblastic leukemia cells; experiment: MTT cytotoxicity assay, NALM-6; type: cell-based; details: NALM-6 (leukemia, ALL), 24-36 hours, read-out: IC50 [MTT]
Experimental: as §1, §2, §3, §4

[6] = test system: U373 human glioblastoma cells; experiment: MTT cytotoxicity assay, U373; type: cell-based; details: U373 MG, U373 (brain tumor, glioblastoma), 24-36 hours, read-out: IC50 [MTT]
Experimental: as §1, §2, §3, §4

[7] = test system: BT-20 human breast cancer cells; experiment: Clonogenic assay, BT-20; type: cell-based; details: 7 days; for inhibition at 0.001 µM / inhibition at 0.01 µM / inhibition at 0.1 µM: Homo sapiens, 168 h, read-out: Inhibition of clonogenic growth
Experimental: as §5, §6

[8] = test system: U373 glioblastoma spheroids; experiment: Cell migration from glioblastoma spheroids; type: cell-based, human; details: U373 spheroids on fibronectin-coated coverslips; 48 hours; varied concentrations
Experimental: U373 glioblastoma spheroids of 200 to 400 micrometers in diameter were treated with synthetic Phorboxazole A, 33-O-Methyl-phorboxazole A, and 45,46-dehydrobromo-phorboxazole A in 0.1% DMSO at varied concentrations. Cells were incubated with the inhibitor or with control DMSO in the absence of inhibitor compound for two hours, and then transferred to fibronectin-coated coverslips. The spheroids were then incubated in DMEM containing […] at 37° C. for 48 hours.
In addition, multi-cellular U373 glioblastoma spheroids of 200-400 μm diameter were incubated with 500 nM, 250 nM, 125 nM, 62.5 nM and […] phorboxazoleA, 29-phorboxamide A, 18-methyl phorboxylate and 31-methyl phorboxylate in 0.1% DMSO or 0.1% DMSO alone for 2 hours and transferred to fibronectin-coated coverslips. The spheroids were then incubated in MEM containing respective compounds and cultured for 48 hours at 37° C. At the end of incubation, the spheroids were fixed and stained with Hema-3 solutions. The distance of migrated cells from spheroids was measured using a mircoscope and micrometer.

| SMILES | IC50 [1] [nM] | Mean Number Colonies/10^4 cells ([2]; 10 nM) | Mean Number Colonies/10^4 cells ([2]; 100 nM) | inhibition at 0.01 µM ([2]; 10 nM) [%] | inhibition at 0.1 µM ([2]; 100 nM) [%] | Mean Number Colonies/10^4 cells ([3]; 1 nM) | Mean Number Colonies/10^4 cells ([3]; 10 nM) | Mean Number Colonies/10^4 cells ([3]; 100 nM) | inhibition at 0.001 µM ([3]; 1 nM) [%] | inhibition at 0.01 µM ([3]; 10 nM) [%] | inhibition at 0.1 µM ([3]; 100 nM) [%] | Apoptosis-inducing activity [4] | Depolarized mitochondria (mitochondrial membrane potential) (leukemia NALM-6 cells) | IC50 [5] [nM] | IC50 [6] [nM] | Mean Number Colonies/10^4 cells ([7]; 1 nM) | Mean Number Colonies/10^4 cells ([7]; 10 nM) | Mean Number Colonies/10^4 cells ([7]; 100 nM) | inhibition at 0.001 µM ([7]; 1 nM) [%] | inhibition at 0.01 µM ([7]; 10 nM) [%] | also measured |
| --- | --- | --- | --- | --- | --- | --- | --- | --- | --- | --- | --- | --- | --- | --- | --- | --- | --- | --- | --- | --- | --- |
| C#CC[C@H](/C=C/C(C)=C/[C@@H](O)[C@H]1C[C@@H](OC)C[C@@](O)(Cc2nc(/C=C(\C)[C@@H]3O[C@@H]4C/C=C/c5nc(co5)[C@H]5C[C@H](O)C[C@@H](C[C@H]6CC(=C)C[C@H](C/C=C\C(=O)O[C@@H]([C@H]4C)[C@H]3C)O6)O5)co2)O1)OC [Compound 8, 45,46-Dehydrobromo-Phorboxazole A] | 12.6 | 586 | 144 | 10.7 | 78.1 | 2116 | 293 | 0 | 0 | 85.7 | > 99.9 | apoptotic activity | progressive increase in depolarized mitochondria | 4.8 | 27.4 | 1540 | 1062 | 0 | 0 | 30.3 | inhibition at 0.1 µM ([7]; 100 nM): > 99.9%; Inhibition of cell migration from the spheroid [8]: significantly inhibited cell migration |
| C=C1C[C@@H]2C[C@@H]3C[C@@H](O)C[C@@H](O3)c3coc(n3)/C=C/C[C@H]3O[C@@H](/C(C)=C/c4coc(C[C@]5(OC)C[C@H](OC)C[C@H]([C@H](O)/C=C(C)/C=C/[C@@H](C/C=C/Br)OC)O5)n4)[C@H](C)[C@@H](OC(=O)/C=C\C[C@@H](C1)O2)[C@H]3C [Compound 9, 33-O-methyl-Phorboxazole A] | 11.3 | 578 | 0 | 11.9 | > 99.8 | 1760 | 422 | 0 | 14 | 79.4 | > 99.9 | apoptotic activity | progressive increase in depolarized mitochondria | 5.2 | 29.2 | 1824 | 1430 | 0 | 0 | 6.2 | inhibition at 0.1 µM ([7]; 100 nM): > 99.9%; Inhibition of cell migration from the spheroid [8]: significantly inhibited cell migration |
